From ChEMBL document CHEMBL1201862, “PubChem BioAssay data set” (2004)
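Step 1: Grow cells in 96-well plates. Step 2: Expose to compound for 48 hours at 5 concentrations. Step 3: Interpolate endpoints linearly; if unreached, use highest concentration. GI50: concentration for 50% inhibition of growth.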 Active and inactive are the calls of the source. Rule as the data show it: active = GI50 up to about 1.1 µM and inactive = higher.

Tests used:
Test in all cases: NCI anticancer screen, dose series, 48 h
786-0 = test system: 786-0
A498 = test system: A498
A549 = test system: A549
ACHN = test system: ACHN
BT-549 = test system: BT-549
CAKI-1 = test system: CAKI-1
CCRF-CEM = test system: CCRF-CEM
COLO 205 = test system: COLO 205
DMS-273 = test system: DMS-273
DU-145 = test system: DU-145
EKVX = test system: EKVX
HCC 2998 = test system: HCC 2998
HCT-116 = test system: HCT-116
HCT-15 = test system: HCT-15
HL-60 = test system: HL-60
HOP-18 = test system: HOP-18
HOP-62 = test system: HOP-62
HOP-92 = test system: HOP-92
HT-29 = test system: HT-29
Hs-578T = test system: Hs-578T
IGROV-1 = test system: IGROV-1
K562 = test system: K562
KM-20L2 = test system: KM-20L2
KM12 = test system: KM12
LOX IMVI = test system: LOX IMVI
LXFL 529 = test system: LXFL 529
M14 = test system: M14
M19-MEL = test system: M19-MEL
MCF7 = test system: MCF7
MDA-MB-231 = test system: MDA-MB-231
MDA-MB-435 = test system: MDA-MB-435
MDA-N = test system: MDA-N
MOLT-4 = test system: MOLT-4
Malme-3M = test system: Malme-3M
NCI-H226 = test system: NCI-H226
NCI-H23 = test system: NCI-H23
NCI-H460 = test system: NCI-H460
NCI-H522 = test system: NCI-H522
NCI/ADR-RES = test system: NCI/ADR-RES
OVCAR-3 = test system: OVCAR-3
OVCAR-4 = test system: OVCAR-4
OVCAR-5 = test system: OVCAR-5
OVCAR-8 = test system: OVCAR-8
PC-3 = test system: PC-3
RPMI-8226 = test system: RPMI-8226
RXF 393 = test system: RXF 393
SF-268 = test system: SF-268
SF-295 = test system: SF-295
SF-539 = test system: SF-539
SK-MEL-28 = test system: SK-MEL-28
SK-MEL-2 = test system: SK-MEL-2
SK-MEL-5 = test system: SK-MEL-5
SK-OV-3 = test system: SK-OV-3
SN12C = test system: SN12C
SNB-19 = test system: SNB-19
SNB-75 = test system: SNB-75
SNB-78 = test system: SNB-78
SR = test system: SR
T47D = test system: T47D
TK-10 = test system: TK-10
U-251 = test system: U-251
UACC-257 = test system: UACC-257
UACC-62 = test system: UACC-62
UO-31 = test system: UO-31
XF498 = test system: XF498
DLD-1 = test system: DLD-1
DMS-114 = test system: DMS-114
SW-620 = test system: SW-620

Measured: GI50

CCCCCCCCCCCCCCCC(=O)OCC1OC(n2ccc(N)nc2=O)C(O)C1O (centres undefined)
> 42.2 µM: HCT-15
inactive: 786-0 4.29 µM | A498 4.49 µM | BT-549 > 100 µM | CAKI-1 5.36 µM | COLO 205 15 µM | DMS-273 2.04 µM | DU-145 2.12 µM | EKVX > 69 µM | HCC 2998 8.47 µM | HCT-116 2.22 µM | HOP-18 6.31 µM | HOP-92 > 28.8 µM | HT-29 35.2 µM | Hs-578T > 100 µM | IGROV-1 > 100 µM | K562 8.24 µM | KM-20L2 > 24.8 µM | KM12 > 100 µM | LOX IMVI 4.7 µM | LXFL 529 > 100 µM | M19-MEL 2.26 µM | MDA-MB-231 > 100 µM | MDA-MB-435 6.75 µM | MDA-N > 100 µM | Malme-3M 5.28 µM | NCI-H226 > 100 µM | NCI-H23 1.25 µM | NCI-H522 3.08 µM | NCI/ADR-RES > 48.3 µM | OVCAR-3 > 28.2 µM | OVCAR-4 > 100 µM | OVCAR-5 > 38 µM | OVCAR-8 2.39 µM | PC-3 > 100 µM | RPMI-8226 > 87.9 µM | RXF 393 > 85.3 µM | SF-268 12.1 µM | SF-295 44.8 µM | SF-539 > 100 µM | SK-MEL-28 33.5 µM | SK-MEL-2 > 100 µM | SK-MEL-5 18.5 µM | SK-OV-3 15.5 µM | SN12C 9.95 µM | SNB-19 16.9 µM | SNB-75 > 100 µM | SNB-78 > 100 µM | SR 1.5 µM | T47D > 100 µM | TK-10 > 96.4 µM | U-251 21.8 µM | UACC-257 33.4 µM | UACC-62 11.4 µM | UO-31 1.67 µM | XF498 > 100 µM
active: A549 0.601 µM | ACHN 0.753 µM | CCRF-CEM 0.0106 µM | HL-60 0.59 µM | HOP-62 0.403 µM | M14 0.931 µM | MCF7 1.06 µM | MOLT-4 0.0274 µM | NCI-H460 0.401 µM

OCC1=CC(NC2CC(CO)C(O)C(O)C2O)C(O)C(O)C1O (centres undefined)
> 100 µM: HCT-15
inactive: 786-0 > 100 µM | A549 > 100 µM | ACHN > 100 µM | CCRF-CEM > 100 µM | COLO 205 > 100 µM | DLD-1 > 100 µM | DMS-114 > 100 µM | DMS-273 > 100 µM | EKVX > 100 µM | HCT-116 > 100 µM | HOP-18 > 100 µM | HOP-62 > 100 µM | HT-29 > 100 µM | IGROV-1 > 100 µM | K562 > 100 µM | KM12 > 100 µM | LOX IMVI > 100 µM | M14 > 100 µM | M19-MEL > 100 µM | MOLT-4 > 100 µM | Malme-3M > 100 µM | NCI-H226 94.4 µM | NCI-H23 > 100 µM | NCI-H460 > 100 µM | NCI-H522 > 100 µM | OVCAR-3 > 100 µM | OVCAR-8 > 100 µM | RPMI-8226 > 100 µM | RXF 393 > 100 µM | SF-295 > 100 µM | SF-539 > 100 µM | SK-MEL-28 > 100 µM | SK-OV-3 > 100 µM | SN12C > 100 µM | SNB-19 > 100 µM | SNB-75 > 100 µM | SW-620 > 100 µM | TK-10 > 100 µM | U-251 > 100 µM | UACC-257 > 100 µM | UACC-62 > 100 µM | UO-31 > 100 µM | XF498 64.9 µM
